According to patent US12286427B2, “Heterocyclic compounds and uses thereof” (Kumquat Biosciences Inc., priority 2020, dated 2025):

What was measured:
wildtype Kras = target: T1, wildtype Kras (Homo sapiens, UniProt P01116); assay: Nucleotide exchange assay (SOS1-mediated, BODIPY FL GDP fluorescence); format: biochemical; details: 250 nM or 500 nM GDP-loaded K-Ras, SOS1 catalytic domain, fluorescent labelled GDP 0.36 μM, 70 minutes; read-out: IC50 against wildtype Kras
T1 construct: GST (N); made in house; host or cells: E. coli, e.g. BL21 (DE3)
T1 sequence (P01116 1-188 isoform P01116-2): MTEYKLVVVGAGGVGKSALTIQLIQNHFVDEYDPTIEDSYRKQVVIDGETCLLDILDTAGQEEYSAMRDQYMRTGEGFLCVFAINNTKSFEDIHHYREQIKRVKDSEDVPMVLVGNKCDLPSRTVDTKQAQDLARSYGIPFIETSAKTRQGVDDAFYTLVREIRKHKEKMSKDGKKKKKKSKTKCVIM
Experimental: (§1) For example, 250 nM or 500 nM GDP-loaded K-Ras proteins (e.g., wildtype or a mutant thereof including those mentioned in Example 6), each was incubated with different concentrations of compounds (for example ˜60 μM, ˜20 μM, ˜6.7 μM, ˜2.2 μM, ˜0.7 μM, ˜0.2 μM subject compound). A control reaction without subject compound was also included. SOS1 (catalytic domain) protein was added to the K-Ras protein solution. The nucleotide exchange reaction was initiated by adding fluorescent labelled GDP (Guanosine 5′-Diphosphate, BODIPY™ FL 2′-(or-3′)—O—(N-(2-Aminoethyl) Urethane) to a final concentration of 0.36 μM. Fluorescence was measured every 30 s for 70 minutes at 490 nm/515 nm (excitation/emission) in a M1000Pro plate reader (Tecan). Data is exported and analyzed to calculate an IC50 using GraphPad Prism (GraphPad Software). Samples were tested with or without a subject compound disclosed herein including compounds exemplified in Table 1 to assess each compound's ability to inhibit K-Ras signaling or its IC50 against a given Ras protein (e.g., a given mutant K-Ras) of interest.

mutant Kras = mutant Kras (Homo sapiens, UniProt P01116); assay: as above; format: biochemical; details: 250 nM or 500 nM GDP-loaded K-Ras, SOS1 catalytic domain, fluorescent labelled GDP 0.36 μM, 70 minutes; read-out: IC50 against mutant Kras
Sequence of mutant Kras (P01116 whole entry G12D, form open, the tested form may be a part): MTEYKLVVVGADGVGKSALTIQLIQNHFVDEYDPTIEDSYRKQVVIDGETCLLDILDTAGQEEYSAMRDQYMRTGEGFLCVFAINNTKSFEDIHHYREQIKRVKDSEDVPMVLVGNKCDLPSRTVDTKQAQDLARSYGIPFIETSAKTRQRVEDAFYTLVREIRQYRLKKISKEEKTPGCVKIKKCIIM
Experimental: as §1

Row | Compound | IC50 (wildtype Kras) [nM] | IC50 (mutant Kras) [nM]
1 | N#Cc1c(N)sc2c(F)ccc(-c3c(Cl)cc4c(N5C[C@H]6CC[C@@H](C5)N6)nc(OC[C@@]56CCCN5C[C@H](F)C6)nc4c3F)c12 [Compound 19, 4-(4-((1R,5S)-3,8-diazabicyclo[3.2.1]octan-3-yl)-6-chloro-8-fluoro-2-(((2R,7aS)-2-fluorotetrahydro-1H-pyrrolizin-7a(5H)-yl)methoxy)quinazolin-7-yl)-2-amino-7-fluorobenzo[b]thiophene-3-carbonitrile] | < 500 | < 500
2 | COc1nc2c(N3CC4CCC(C3)N4)nc(OCC34CCCN3CCC4)nc2cc1-c1ccc(F)c2sc(N)nc12 [Compound 17, 4-(4-(3,8-diazabicyclo[3.2.1]octan-3-yl)-6-methoxy-2-((tetrahydro-1H-pyrrolizin-7a(5H)-yl)methoxy)pyrido[3,2-d]pyrimidin-7-yl)-7-fluorobenzo[d]thiazol-2-amine] | 500 to 5000 | < 500
3 | CN1CCC[C@H]1COc1nc(N2C[C@H](N)C[C@H](F)C2)c2cc(Cl)c(-c3cccc4sc(N)nc34)c(F)c2n1 [Compound 6, 4-(4-((3R,5S)-3-amino-5-fluoropiperidin-1-yl)-6-chloro-8-fluoro-2-(((S)-1-methylpyrrolidin-2-yl)methoxy)quinazolin-7-yl)benzo[d]thiazol-2-amine] | > 5000 | 500 to 5000
4 | CN1CCC[C@H]1COc1nc(N2C[C@H](N)C[C@@H](O)C2)c2cc(Cl)c(-c3cccc4sc(N)nc34)c(F)c2n1 [Compound 4, (3R,5R)-5-amino-1-(7-(2-aminobenzo[d]thiazol-4-yl)-6-chloro-8-fluoro-2-(((S)-1-methylpyrrolidin-2-yl)methoxy)quinazolin-4-yl)piperidin-3-ol] | > 5000 | < 500
5 | CN1CCC[C@H]1COc1nc(N2C[C@H](N)C[C@H](O)C2)c2cc(Cl)c(-c3cccc4sc(N)nc34)c(F)c2n1 [Compound 3, (3S,5R)-5-amino-1-(7-(2-aminobenzo[d]thiazol-4-yl)-6-chloro-8-fluoro-2-(((S)-1-methylpyrrolidin-2-yl)methoxy)quinazolin-4-yl)piperidin-3-ol] | 500 to 5000 | < 500
6 | COc1nc2c(N3CCNCC3)nc(OC[C@@]34CCCN3C[C@H](F)C4)nc2cc1-c1ccc(F)c2sc(N)nc12 [Compound 18, 7-fluoro-4-(2-(((2R,7aS)-2-fluorotetrahydro-1H-pyrrolizin-7a(5H)-yl)methoxy)-6-methoxy-4-(piperazin-1-yl)pyrido[3,2-d]pyrimidin-7-yl) benzo[d]thiazol-2-amine] | > 5000 | 500 to 5000
7 | Nc1nc2c(-c3c(Cl)cc4c(N5CCNCC5)nc(OCC56CCCN5CCC6)nc4c3F)cccc2s1 [Compound 12, 4-(6-chloro-8-fluoro-4-(piperazin-1-yl)-2-((tetrahydro-1H-pyrrolizin-7a(5H)-yl)methoxy)quinazolin-7-yl)benzo[d]thiazol-2-amine] | 500 to 5000 | < 500
8 | CN1CCC[C@H]1COc1nc(N2CC(N)CC(O)C2)c2cc(Cl)c(-c3cccc4sc(N)nc34)c(F)c2n1 (stereo partly drawn) [Compound 5, 5-amino-1-(7-(2-aminobenzo[d]thiazol-4-yl)-6-chloro-8-fluoro-2-(((S)-1-methylpyrrolidin-2-yl)methoxy)quinazolin-4-yl)piperidin-3-ol] | 500 to 5000 | < 500
9 | Nc1nc2c(-c3cnc4c(N5CC6CCC(C5)N6)nc(OC[C@@]56CCCN5C[C@H](F)C6)nc4c3)ccc(F)c2s1 [Compound 13, 4-(4-(3,8-diazabicyclo[3.2.1]octan-3-yl)-2-(((2R,7aS)-2-fluorotetrahydro-1H-pyrrolizin-7a(5H)-yl)methoxy)pyrido[3,2-d]pyrimidin-7-yl)-7-fluorobenzo[d]thiazol-2-amine] | > 5000 | < 500
10 | Cc1c(N)sc2cccc(-c3c(Cl)cc4c(N5C[C@H]6CC[C@@H](C5)N6)nc(OC[C@@]56CCCN5C[C@H](F)C6)nc4c3F)c12 [Compound 22, 4-(4-((1R,5S)-3,8-diazabicyclo[3.2.1]octan-3-yl)-6-chloro-8-fluoro-2-(((2R,7aS)-2-fluorotetrahydro-1H-pyrrolizin-7a(5H)-yl)methoxy)quinazolin-7-yl)-3-methylbenzo[b]thiophen-2-amine] | < 500 | < 500
11 | CN1CCC[C@H]1COc1nc(N2CCC[C@@H](N)C2)c2cc(Cl)c(-c3cccc4sc(N)nc34)c(F)c2n1 [Compound 8, 4-(4-((R)-3-aminopiperidin-1-yl)-6-chloro-8-fluoro-2-(((S)-1-methylpyrrolidin-2-yl)methoxy)quinazolin-7-yl)benzo[d]thiazol-2-amine] | 500 to 5000 | < 500
12 | Nc1nc2c(-c3cc4nc(OCC56CCCN5CCC6)nc(N5CC6CCC(C5)N6)c4nc3O)ccc(F)c2s1 [Compound 16, 7-(2-amino-7-fluorobenzo[d]thiazol-4-yl)-4-(3,8-diazabicyclo[3.2.1]octan-3-yl)-2-((tetrahydro-1H-pyrrolizin-7a(5H)-yl)methoxy)pyrido[3,2-d] pyrimidin-6-ol] | > 5000 | < 500
13 | COc1nc2c(N3CC4CCC(C3)N4)nc(OC[C@@]34CCCN3C[C@H](F)C4)nc2cc1-c1ccc(F)c2sc(N)nc12 [Compound 14, 4-(4-(3,8-diazabicyclo[3.2.1]octan-3-yl)-2-(((2R,7aS)-2-fluorotetrahydro-1H-pyrrolizin-7a(5H)-yl)methoxy)-6-methoxypyrido[3,2-d]pyrimidin-7-yl)-7-fluorobenzo[d]thiazol-2-amine] | 500 to 5000 | < 500
14 | CN1CCC[C@H]1COc1nc(N2CC[C@H](N)C2)c2cc(Cl)c(-c3cccc4sc(N)nc34)c(F)c2n1 [Compound 11, 4-(4-((S)-3-aminopyrrolidin-1-yl)-6-chloro-8-fluoro-2-(((S)-1-methylpyrrolidin-2-yl)methoxy)quinazolin-7-yl)benzo[d]thiazol-2-amine] | 500 to 5000 | < 500
15 | Nc1sc2c(F)ccc(-c3c(Cl)cc4c(N5C[C@H]6CC[C@@H](C5)N6)nc(OC[C@@]56CCCN5C[C@H](F)C6)nc4c3F)c2c1C1CC1 [Compound 20, 4-(4-((1R,5S)-3,8-diazabicyclo[3.2.1]octan-3-yl)-6-chloro-8-fluoro-2-(((2R,7aS)-2-fluorotetrahydro-1H-pyrrolizin-7a(5H)-yl)methoxy)quinazolin-7-yl)-3-cyclopropyl-7-fluorobenzo[b]thiophen-2-amine] | 500 to 5000 | < 500
16 | COc1nc2c(N3C4CCC3CNC4)nc(OC[C@@]34CCCN3C[C@H](F)C4)nc2cc1-c1ccc(F)c2sc(N)nc12 [Compound 15, 4-(4-(3,8-diazabicyclo[3.2.1]octan-8-yl)-2-(((2R,7aS)-2-fluorotetrahydro-1H-pyrrolizin-7a(5H)-yl)methoxy)-6-methoxypyrido[3,2-d]pyrimidin-7-yl)-7-fluorobenzo[d]thiazol-2-amine] | > 5000 | < 500
17 | Cc1c(N)sc2c(F)ccc(-c3c(Cl)cc4c(N5C[C@H]6CC[C@@H](C5)N6)nc(OC[C@@]56CCCN5C[C@H](F)C6)nc4c3F)c12 [Compound 21, 4-(4-((1R,5S)-3,8-diazabicyclo[3.2.1]octan-3-yl)-6-chloro-8-fluoro-2-(((2R,7aS)-2-fluorotetrahydro-1H-pyrrolizin-7a(5H)-yl)methoxy)quinazolin-7-yl)-7-fluoro-3-methylbenzo[b]thiophen-2-amine] | < 500 | < 500
18 | CN1CCC[C@H]1COc1nc(N2C[C@H](N)C[C@@H](F)C2)c2cc(Cl)c(-c3cccc4sc(N)nc34)c(F)c2n1 [Compound 7, 4-(4-((3R,5R)-3-amino-5-fluoropiperidin-1-yl)-6-chloro-8-fluoro-2-(((S)-1-methylpyrrolidin-2-yl)methoxy)quinazolin-7-yl)benzo[d]thiazol-2-amine] | > 5000 | 500 to 5000
19 | CN1CCC[C@H]1COc1nc(N2C[C@@H](N)[C@@H](F)C2)c2cc(Cl)c(-c3cccc4sc(N)nc34)c(F)c2n1 [Compound 10, 4-(4-((3R,4S)-3-amino-4-fluoropyrrolidin-1-yl)-6-chloro-8-fluoro-2-(((S)-1-methylpyrrolidin-2-yl)methoxy)quinazolin-7-yl)benzo[d]thiazol-2-amine] | 500 to 5000 | 500 to 5000
